Source: the CheMixHub viscosity set
“And” between values parts separate entries of the source, which are not always exact repeats. Equal values may be shown once.

Assay: xn = mol fraction of the nth substance listed

N[C@@H](CO)C(=O)O + O
Details | viscosity
298 K, 101 kPa, x1 = 0.0004 | 0.8836 mPa·s
298 K, 101 kPa, x1 = 0.0007 | 0.8853 mPa·s
298 K, 101 kPa, x1 = 0.001 | 0.889 mPa·s and 0.8901 mPa·s
298.15 K, 101 kPa, x1 = 8.92e-05 | 0.9214 mPa·s
298.15 K, 101 kPa, x1 = 0.000181 | 0.9346 mPa·s
298.15 K, 101 kPa, x1 = 0.00045 | 0.9108 mPa·s
298.15 K, 101 kPa, x1 = 0.000898 | 0.9225 mPa·s
298.15 K, 101 kPa, x1 = 0.00135 | 0.9328 mPa·s
298.15 K, 101 kPa, x1 = 0.00178 | 0.9489 mPa·s
298.15 K, 101 kPa, x1 = 0.001798 | 0.942 mPa·s
298.15 K, 101 kPa, x1 = 0.002245 | 0.9508 mPa·s
298.15 K, 101 kPa, x1 = 0.002695 | 0.9596 mPa·s
298.15 K, 101 kPa, x1 = 0.003143 | 0.9678 mPa·s
298.15 K, 101 kPa, x1 = 0.00359 | 0.9758 mPa·s
298.15 K, 101 kPa, x1 = 0.003599 | 0.9614 mPa·s
298.15 K, 101 kPa, x1 = 0.005265 | 0.9714 mPa·s
298.15 K, 101 kPa, x1 = 0.007246 | 0.9945 mPa·s
298.15 K, 101 kPa, x1 = 0.008825 | 1.011 mPa·s
298.15 K, 101 kPa, x1 = 0.01096 | 1.024 mPa·s
298.15 K, 101 kPa, x1 = 0.01198 | 1.04 mPa·s
298.15 K, 101 kPa, x1 = 0.01387 | 1.059 mPa·s
298.15 K, 101.3 kPa, x1 = 0.0008915 | 0.901 mPa·s
298.15 K, 101.3 kPa, x1 = 0.001352 | 0.905 mPa·s
298.15 K, 101.3 kPa, x1 = 0.001784 | 0.909 mPa·s
298.15 K, 101.3 kPa, x1 = 0.002244 | 0.913 mPa·s
298.15 K, 101.3 kPa, x1 = 0.002683 | 0.917 mPa·s
303.15 K, 101 kPa, x1 = 0.00045 | 0.8151 mPa·s
303.15 K, 101 kPa, x1 = 0.000898 | 0.8252 mPa·s
303.15 K, 101 kPa, x1 = 0.00135 | 0.834 mPa·s
303.15 K, 101 kPa, x1 = 0.001798 | 0.8418 mPa·s
303.15 K, 101 kPa, x1 = 0.002245 | 0.8494 mPa·s
303.15 K, 101 kPa, x1 = 0.002695 | 0.8566 mPa·s
303.15 K, 101 kPa, x1 = 0.003143 | 0.8637 mPa·s
303.15 K, 101 kPa, x1 = 0.00359 | 0.8705 mPa·s
303.15 K, 101.3 kPa, x1 = 0.0008915 | 0.807 mPa·s
303.15 K, 101.3 kPa, x1 = 0.001352 | 0.811 mPa·s
303.15 K, 101.3 kPa, x1 = 0.001784 | 0.815 mPa·s
305.15 K, 101 kPa, x1 = 0.0003602 | 0.7851 mPa·s
305.15 K, 101 kPa, x1 = 0.0007201 | 0.7891 mPa·s
305.15 K, 101 kPa, x1 = 0.00108 | 0.7935 mPa·s
305.15 K, 101 kPa, x1 = 0.001439 | 0.7984 mPa·s
305.15 K, 101 kPa, x1 = 0.001798 | 0.8025 mPa·s
305.15 K, 101 kPa, x1 = 0.002157 | 0.8071 mPa·s
308.15 K, 101 kPa, x1 = 8.92e-05 | 0.7615 mPa·s
308.15 K, 101 kPa, x1 = 0.000181 | 0.7756 mPa·s
308.15 K, 101 kPa, x1 = 0.00045 | 0.7347 mPa·s
308.15 K, 101 kPa, x1 = 0.000898 | 0.7434 mPa·s
308.15 K, 101 kPa, x1 = 0.00135 | 0.751 mPa·s
308.15 K, 101 kPa, x1 = 0.00178 | 0.7901 mPa·s
308.15 K, 101 kPa, x1 = 0.001798 | 0.7578 mPa·s
308.15 K, 101 kPa, x1 = 0.002245 | 0.7641 mPa·s
308.15 K, 101 kPa, x1 = 0.002695 | 0.7704 mPa·s
308.15 K, 101 kPa, x1 = 0.003143 | 0.7764 mPa·s
308.15 K, 101 kPa, x1 = 0.00359 | 0.7822 mPa·s
308.15 K, 101 kPa, x1 = 0.003599 | 0.8056 mPa·s
308.15 K, 101 kPa, x1 = 0.005265 | 0.8198 mPa·s
308.15 K, 101 kPa, x1 = 0.007246 | 0.8356 mPa·s
308.15 K, 101 kPa, x1 = 0.008825 | 0.8542 mPa·s
308.15 K, 101 kPa, x1 = 0.01096 | 0.8741 mPa·s
308.15 K, 101 kPa, x1 = 0.01198 | 0.8898 mPa·s
308.15 K, 101 kPa, x1 = 0.01387 | 0.9046 mPa·s
310.15 K, 101 kPa, x1 = 0.0003602 | 0.7043 mPa·s
310.15 K, 101 kPa, x1 = 0.0007201 | 0.708 mPa·s
310.15 K, 101 kPa, x1 = 0.00108 | 0.7119 mPa·s
310.15 K, 101 kPa, x1 = 0.001439 | 0.7158 mPa·s
310.15 K, 101 kPa, x1 = 0.001798 | 0.7189 mPa·s
310.15 K, 101 kPa, x1 = 0.002157 | 0.7232 mPa·s
313.15 K, 101 kPa, x1 = 0.00045 | 0.6665 mPa·s
313.15 K, 101 kPa, x1 = 0.000898 | 0.6741 mPa·s
313.15 K, 101 kPa, x1 = 0.00135 | 0.6807 mPa·s
313.15 K, 101 kPa, x1 = 0.001798 | 0.6867 mPa·s
313.15 K, 101 kPa, x1 = 0.002245 | 0.6922 mPa·s
313.15 K, 101 kPa, x1 = 0.002695 | 0.6976 mPa·s
313.15 K, 101 kPa, x1 = 0.003143 | 0.7029 mPa·s
313.15 K, 101 kPa, x1 = 0.00359 | 0.7078 mPa·s
315.15 K, 101 kPa, x1 = 0.0003602 | 0.6498 mPa·s
315.15 K, 101 kPa, x1 = 0.0007201 | 0.6537 mPa·s
315.15 K, 101 kPa, x1 = 0.00108 | 0.6566 mPa·s
315.15 K, 101 kPa, x1 = 0.001439 | 0.66 mPa·s
315.15 K, 101 kPa, x1 = 0.001798 | 0.6629 mPa·s
315.15 K, 101 kPa, x1 = 0.002157 | 0.6666 mPa·s
318.15 K, 101 kPa, x1 = 8.92e-05 | 0.6512 mPa·s
318.15 K, 101 kPa, x1 = 0.000181 | 0.6602 mPa·s
318.15 K, 101 kPa, x1 = 0.00045 | 0.6097 mPa·s
318.15 K, 101 kPa, x1 = 0.000898 | 0.6164 mPa·s
318.15 K, 101 kPa, x1 = 0.00135 | 0.6222 mPa·s
318.15 K, 101 kPa, x1 = 0.00178 | 0.6723 mPa·s
318.15 K, 101 kPa, x1 = 0.001798 | 0.6275 mPa·s
318.15 K, 101 kPa, x1 = 0.002245 | 0.6324 mPa·s
318.15 K, 101 kPa, x1 = 0.002695 | 0.6371 mPa·s
318.15 K, 101 kPa, x1 = 0.003143 | 0.6417 mPa·s
318.15 K, 101 kPa, x1 = 0.00359 | 0.6461 mPa·s
318.15 K, 101 kPa, x1 = 0.003599 | 0.6845 mPa·s
318.15 K, 101 kPa, x1 = 0.005265 | 0.6953 mPa·s
318.15 K, 101 kPa, x1 = 0.007246 | 0.7012 mPa·s
318.15 K, 101 kPa, x1 = 0.008825 | 0.7125 mPa·s
318.15 K, 101 kPa, x1 = 0.01096 | 0.7242 mPa·s
318.15 K, 101 kPa, x1 = 0.01198 | 0.7345 mPa·s
318.15 K, 101 kPa, x1 = 0.01387 | 0.7466 mPa·s
